The values below come from publication PMC5522996, “Big conductance calcium‐activated potassium channel openers control spasticity without sedation” (British Journal of Pharmacology, 2017).

Entries after “also recorded” stand apart in the source; their conditions may differ. Where only a bound is given, the exact number is not on record here.

One data set concerns the target T1, δ2 (Homo sapiens, UniProt P41143).
T1 construct: purchased Cerep; Chantest; DiscoveRx; Multispan; MDS Pharma Services
The data set can be described thus: Receptor binding profile of VSN16R. To be noted: 10µM VSN16R.

Data set [1] can be described thus: Stability in pooled mouse plasma. The format is in vitro ADME. The note with it: 37°C, upper limit 100 min, read-out: t ½ in plasma. As for the experimental part: The stability of compounds when subjected to hepatic and plasma degradation was assessed in vitro by Inpharmatica, Cambridge, UK. Compounds (1 μM) were incubated with either pooled mouse liver microsomes (0.1 mg protein mL^−1) or pooled mouse plasma at 37°C for 0, 5, 10, 20 and 40 min before termination with acetonitrile containing warfarin as an analytical internal standard. Samples were centrifuged, and the resultant supernatant analysed for parent compound. The mass responses at baseline were taken as the 100% reference values against which the disappearance of the compound was measured. The natural log of the % remaining values was used to generate linear plots of disappearance of the compounds. Half‐life values were calculated from the slope of these plots. Hepatocyte metabolism was assessed by Cyprotex, Macclesfield, and 10 μM VSN16R was incubated with primary mouse, rat, monkey (Macaque) and human hepatocytes for 1 h, and the presence of metabolites was assessed using liquid […] mass spectroscopy. The stability of VSN16R was assessed in vivo by Inpharmatica, Cyprotex and Charles Rivers, Cambridge. Blood (plasma) samples were obtained prior to and 5 min to 24 h after drug administration of 2–5 mg·kg^−1 i.v. or 5 mg·kg^−1 p.o. VSN16R into outbred mice and rats (n = 3 per time point). […] Data are expressed as mean ± SEM. […]

In another data set the target is T2, VIP1 (Homo sapiens, UniProt P32241).
T2 construct: purchased Cerep; Chantest; DiscoveRx; Multispan; MDS Pharma Services
In words: Receptor binding profile of VSN16R. To be noted: 10µM VSN16R.

A further data set addresses CYP450 1A2 (Homo sapiens, UniProt P05177). The data set can be described thus: CYP450 inhibition of substrate binding.
For data set [2], the system named is primary porcine aorta endothelium. In words: Patch clamp of primary pig aorta endothelium. The class given is cell-based.
For data set [3], the system named is spastic ABH mice with EAE. The data set can be described thus: Hoffman (H) reflex electrophysiology in spastic animals. The class given is in vivo, mouse. The note with it: 30mg/kg i.v.
A further data set deals with T3, GPR55 (Homo sapiens, UniProt Q9Y2T6).
T3 construct: purchased Cerep; Chantest; DiscoveRx; Multispan; MDS Pharma Services
In words: Receptor binding profile of VSN16R.

The next data set relates to rats. In words: 28 day toxicology in rats (100, 300, 1000mg/kg p.o.). The class given is in vivo, rat. On the procedure: Twenty‐eight day toxicology in rats and dogs for Investigational New Drug filing was performed by Charles Rivers (UK). Reproductive toxicology in rabbits was performed by Charles Rivers (Canada). Pharmacokinetic and/or toxicological doses ranged from 5 to 1000 mg·kg^−1 p.o. in Sprague Dawley male and female rats (n = 6‐26 per group), 50–200 mg·kg^−1 p.o. in male and female Beagle dogs (n = 6 per group) and 100–750 mg·kg^−1 p.o. in female New Zealand white rabbits (n = 9 per group). Results are expressed as mean ± SD.
Tissue Analysed Result of Tissue Analysis in Rats Result of Tissue Analysis in Dogs Artery, Aorta Negative Negative
Bone Marrow femur Negative Negative
Bone Marrow sternum Negative Negative
Bone, Sternum Negative Negative
Epididymus Negative Negative
Adrenal Gland Negative Negative
Mammary Grand Negative Negative
Parathyroid Gland Negative Negative
Pituitary Gland Negative Negative
Prostate Gland Negative Negative
Salivary Gland Negative Negative
Seminal Vesicle Gland Negative Negative
Gut associated lymphoid Negative Negative
Large Intestine caecum Negative Negative
Large Intestine colon Negative Negative
Large Intestine rectum Negative Negative
Mandibular Lymph Node Negative Negative
Mesenteric Lymph Node Negative Negative
Skeletal Muscle Negative Negative
Nasal Cavity Negative Negative
Sciatic Nerve Negative Negative
Oesophagus Negative Negative
Pancreas Negative Negative
Small Intestine, duodenum Negative Negative
Small Intestine, Ileum Negative Negative […]
Following 28 day toxicology of feeding either: rats treated with 100mg/kg, 300mg/kg, 1000mg/kg p.o. (n-20/group) or dogs treated with 50mg/kg, 100mg/kg or 200mg/kg p.o. (n=6/group). […] Studies were performed by Charles Rivers, Ltd. However, * There was hypertrophy of the liver that was evident at high doses VSN16R was associated with liver weight (mean ± SD) increases: 11.0 ± 1.2g placebo, 11.6 ± 1.3g (300mg/kg p.o.), 16.7 ± 2.1g (1000mg/kg p.o. P<0.001 assessed using Students t test. n= 10 female rats/group) associated with liver enzyme induction, supporting enhanced VSN16R clearance in pharmacokinetic studies. […]

For the next data set, the system named is mice. The data set can be described thus: Visible sedation, behaviour and tolerability in mice.
The target of a further data set is T4, CYP450 2D6 (Homo sapiens, UniProt P10635).
T4 construct: from tissue; host or cells: liver microsomes
The data set can be described thus: CYP450 inhibition of dextromethorphan substrate in liver microsomes. To be noted: read-out: IC50 Inhibition of substrate binding, VSN16R. The format is in vitro ADME.

The subject of the next data set is healthy volunteers. In words: Phase I safety study, adverse events. The format is in vivo, human.
[4] abbreviates: 1 g·kg^−1 p.o. daily for 5 days.

T3 sequence (Q9Y2T6 whole entry): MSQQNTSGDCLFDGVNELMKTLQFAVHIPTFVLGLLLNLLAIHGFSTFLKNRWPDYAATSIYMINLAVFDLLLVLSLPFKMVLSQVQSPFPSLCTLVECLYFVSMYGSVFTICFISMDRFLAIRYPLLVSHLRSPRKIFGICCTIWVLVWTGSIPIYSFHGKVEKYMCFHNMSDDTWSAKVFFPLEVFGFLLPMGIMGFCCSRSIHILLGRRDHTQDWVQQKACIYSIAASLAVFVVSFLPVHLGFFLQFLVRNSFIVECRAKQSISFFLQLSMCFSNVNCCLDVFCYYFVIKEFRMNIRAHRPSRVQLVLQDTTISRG
T1 sequence (P41143 whole entry): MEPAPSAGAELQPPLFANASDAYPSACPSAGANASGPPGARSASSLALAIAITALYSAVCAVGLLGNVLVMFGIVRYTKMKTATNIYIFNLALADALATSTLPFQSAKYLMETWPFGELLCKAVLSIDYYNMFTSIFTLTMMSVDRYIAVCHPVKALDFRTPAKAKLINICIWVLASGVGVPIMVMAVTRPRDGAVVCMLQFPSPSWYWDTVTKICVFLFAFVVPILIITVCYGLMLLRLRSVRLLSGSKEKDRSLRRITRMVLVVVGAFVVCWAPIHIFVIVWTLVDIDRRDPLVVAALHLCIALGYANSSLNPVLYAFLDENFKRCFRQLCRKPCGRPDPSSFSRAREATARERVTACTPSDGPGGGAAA
T4 sequence (P10635 whole entry): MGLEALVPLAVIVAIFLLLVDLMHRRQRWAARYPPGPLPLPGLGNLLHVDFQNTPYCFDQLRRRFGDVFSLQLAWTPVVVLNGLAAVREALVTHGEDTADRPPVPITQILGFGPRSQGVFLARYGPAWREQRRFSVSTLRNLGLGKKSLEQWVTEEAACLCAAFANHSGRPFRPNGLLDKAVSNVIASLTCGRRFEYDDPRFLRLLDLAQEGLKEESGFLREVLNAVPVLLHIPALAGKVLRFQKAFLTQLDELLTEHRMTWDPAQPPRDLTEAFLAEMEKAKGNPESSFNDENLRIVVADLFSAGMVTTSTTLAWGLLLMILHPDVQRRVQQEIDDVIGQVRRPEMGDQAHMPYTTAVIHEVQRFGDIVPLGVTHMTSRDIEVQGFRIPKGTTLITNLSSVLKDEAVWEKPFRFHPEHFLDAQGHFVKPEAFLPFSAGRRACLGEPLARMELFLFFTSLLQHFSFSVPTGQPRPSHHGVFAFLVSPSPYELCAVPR
CYP450 1A2, sequence (P05177 whole entry): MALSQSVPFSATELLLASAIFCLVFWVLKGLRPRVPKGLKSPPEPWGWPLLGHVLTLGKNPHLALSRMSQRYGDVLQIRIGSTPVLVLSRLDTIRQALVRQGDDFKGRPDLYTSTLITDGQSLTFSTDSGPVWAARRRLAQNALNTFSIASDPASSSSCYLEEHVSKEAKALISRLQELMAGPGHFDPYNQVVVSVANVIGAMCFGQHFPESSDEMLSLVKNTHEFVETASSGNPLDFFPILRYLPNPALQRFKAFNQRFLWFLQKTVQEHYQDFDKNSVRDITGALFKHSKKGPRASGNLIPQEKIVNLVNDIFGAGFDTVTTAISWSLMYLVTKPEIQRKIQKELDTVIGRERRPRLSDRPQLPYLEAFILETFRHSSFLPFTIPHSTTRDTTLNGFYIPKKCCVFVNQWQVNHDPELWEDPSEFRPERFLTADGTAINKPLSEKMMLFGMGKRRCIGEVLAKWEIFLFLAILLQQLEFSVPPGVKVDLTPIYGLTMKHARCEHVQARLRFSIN
T2 sequence (P32241 31-457): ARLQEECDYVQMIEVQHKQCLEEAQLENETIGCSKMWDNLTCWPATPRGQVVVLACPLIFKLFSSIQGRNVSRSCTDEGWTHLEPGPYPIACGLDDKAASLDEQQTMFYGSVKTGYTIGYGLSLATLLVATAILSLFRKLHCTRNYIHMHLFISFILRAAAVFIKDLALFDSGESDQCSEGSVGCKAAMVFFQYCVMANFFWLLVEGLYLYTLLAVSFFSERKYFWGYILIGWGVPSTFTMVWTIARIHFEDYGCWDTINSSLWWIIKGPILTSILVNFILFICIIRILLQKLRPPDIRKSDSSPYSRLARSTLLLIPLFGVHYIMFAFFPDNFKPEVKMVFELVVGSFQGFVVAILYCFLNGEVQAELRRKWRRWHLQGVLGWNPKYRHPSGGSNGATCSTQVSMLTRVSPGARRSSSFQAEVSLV
Excerpt for CYP450 1A2: (§1) Inhibition of binding of either 3-cyano-7-ethoxycoumarin, dibenzylfluorescein or 7-benzyoxy-4-
(§2) (trifluoromethyl) coumarin in human enzyme transfected BTI NN-5B1-4 cells or Sf9 insect cells or
(§3) inhibition of dextromethorphan substrate to CYP450 2D6 in liver microsomes.
Excerpt for CYP450 2D6: as §1, §2, §3

`C[C@H](CO)NC(=O)c1cccc(/C=C\CCCC(=O)N(C)C)c1` [VSN16R]: the Activity result at δ2, at VIP1 and at GPR55 (10µM VSN16R) was “Negligible Activity” throughout. The half-life at 1 μM in [1] is > 1.67 h. Besides, the half-maximal inhibitory concentration (IC50) (in general, the midpoint of a concentration-inhibition curve) is > 10 µM on CYP450 1A2 and > 30 µM at CYP450 2D6. In data set [2], the “Effect on primary porcine aorta endothelium” value was “do not respond; also recorded: had no effects”. Moreover, the “Animals with H reflex inhibited” value in data set [3] is given as 3/5. Also, on GPR55 (Multispan C1113, H113, HEK293T.GPR55 and mouse DBT.Gpr55 cell lines), the “Binding to GPR55” value is given as “does not directly bind”. In addition, the “Histological analysis of animal tissues” value in the data set with rats (both, Sprague Dawley (rat), rat, in vivo, 28 days) is recorded as “essentially no significant microscopic findings attributable to VSN16R”. This compound also had an NOEL in the data set on rats (p.o., rats over 28 days) of 1000 mg/kg. Also, the Clinical signs entry in the data set on rats (rat, in vivo) is “occasional salivation and ‘ploughing’ behaviours”. Besides, the “Overt behavioural effects or toxicity” value in the data set on mice (setting [4]) is on record as “failed to show any overt behavioural effects or toxicity”. Moreover, the Weight loss entry with mice (setting [4]) is given as “no drug‐induced weight loss”. The compound also came in with a Tolerated dose in the data set with mice (p.o., mice) of 1000 mg/kg. In addition, in the data set with mice (up to 30 mg·kg^−1 i.v. in PBS), the “Visible evidence of sedation” value is given as “failed to show any visible evidence of sedation”. The “Vomiting or issues of taste” value in the data set with healthy volunteers (encapsulated drug, human studies) was “no vomiting or issues of taste were reported”. In addition, the Sedation in humans result in the data set with healthy volunteers (in vivo) is reported as “does not induce sedation”. For the same compound, in the data set with healthy volunteers (multiple ascending dose b.i.d.), the Serious adverse events result is recorded as “no serious adverse events”. Also, the “Subjects with a possible side effect of the treatment” value with healthy volunteers (multiple ascending dose b.i.d., 3/18 subjects) amounted to 16.7%. Further, the “Subjects reporting adverse events” value with healthy volunteers (multiple ascending dose b.i.d., 6/18 subjects) was determined as 33.3%. Moreover, the “Serious adverse drug‐related events” value with healthy volunteers (single ascending dose) is on record as “No serious adverse drug‐related events occurred”. Moreover, the Adverse events reported in the data set on healthy volunteers (single ascending dose 25–800 mg) was determined as 14.3%. Besides, in the data set with healthy volunteers (single ascending dose, 5/42 subjects), the “Subjects with a possible associated effect with treatment” value is recorded as 11.9%.
